Measurements reported in PMC10247784, “Physiological activation of human and mouse bitter taste receptors by bile acids” (Communications Biology, 2023).

Target: T1, mouse Tas2r105 (Mus musculus, UniProt Q9JKT4)
T1 construct: expressed in transfected cells; host or cells: HEK293T-Gα16gust44
T1 sequence (Q9JKT4 1-300): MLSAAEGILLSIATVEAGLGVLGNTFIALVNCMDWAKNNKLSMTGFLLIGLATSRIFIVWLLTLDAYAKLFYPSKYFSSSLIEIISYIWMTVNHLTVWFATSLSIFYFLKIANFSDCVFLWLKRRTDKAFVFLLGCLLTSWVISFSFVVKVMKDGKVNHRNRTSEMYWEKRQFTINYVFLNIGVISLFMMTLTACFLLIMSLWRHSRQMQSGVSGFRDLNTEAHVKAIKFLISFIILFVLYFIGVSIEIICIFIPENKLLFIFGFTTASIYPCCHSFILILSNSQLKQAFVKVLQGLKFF
Test: Calcium imaging assay (FLIPR), HEK293T-Gα16gust44 cells transfected with mouse Tas2r105
Type: cell-based
Procedure: This set of bile acids was chosen because of their commercial availability in high purities, their diversity within the class of bile acids and their previous detection and quantitation in human blood. Stock solutions were prepared in DMSO.
As basal growth medium for the HEK293T-Gα16gust44 cell line[17],[59] served Dulbecco’s modified eagle medium (DMEM) (Thermo Fisher Scientific, Darmstadt, Germany) supplemented with 10 % fetal bovine serum (Sigma-Aldrich, Steinheim, Germany), 2 mM L-glutamine (Sigma-Aldrich, Steinheim, Germany), 100 units/ml penicillin (Sigma Aldrich, Steinheim, Germany) and 100 µg/ml streptomycin (Sigma Aldrich, Steinheim, Germany). Growth conditions were 37 °C, 5 % CO2 and saturated air-humidity[60].
HEK293T-Gα16gust44 cells were seeded on poly-D-lysine (10 µg/ml) coated 96-well plates to reach a confluence of 40-60 % the next day. For transient transfection 150 ng of plasmid DNA containing the receptor of interest and 0.3 µl lipofectamine 2000 (Thermo Fisher Scientific, Darmstadt, Germany) per well were used and transfection took place according to the manual of lipofectamine 2000. […] The empty vector DNA (mock) was transfected as negative control[14],[41].
Cells were loaded using the calcium-sensitive fluorescent dye Fluo-4-AM (Abcam, Cambridge, Great Britain) in the presence of 2.5 mM probenecid (Sigma-Aldrich, Steinheim, Germany) the day after transfection[13],[41]. 1 h after loading, cells were washed with C1 buffer using a BioTek Cell Washer, incubated in the dark for half an hour and washed again. For automated agonist application and measurement of fluorescence changes, a FLIPR^TETRA device (Molecular Devices, San José, United States) was used. Viability of cells was tested by application of 100 nM Somatostatin 14 (Bachem, Bubendorf, Switzerland)[42].
Measured data were negative control corrected by subtracting the signal of the mock-transfected cells and exported to Microsoft Excel using the FLIPR software ScreenWorks 4.2. In Microsoft Excel software, standardization of maximum fluorescence intensities to the basal fluorescence and normalization to the buffer-only control was done to calculate the relative fluorescence changes (ΔF/F).
Initial screening experiments performed in duplicate wells were confirmed by at least one replication and representative traces were selected for display. All dose-response relationships were determined by three independent experiments (biological replicates) performed in duplicates (technical replicates). Threshold concentrations, defined as lowest substance concentrations leading to statistically significant elevated fluorescence changes in receptor-transfected cells compared with empty vector-transfected cells, were determined using SigmaPlot with Student’s t-test to evaluate statistical significance (p < 0.01).

`C[C@H](CCC(=O)O)[C@H]1CC[C@H]2[C@@H]3CC[C@@H]4C[C@H](O)CC[C@]4(C)[C@H]3CC[C@]12C` [Lithocholic Acid, lithocholic acid] gave an RLU (Time 0 s) of 0 RLU, an RLU (Time 2 s) of -19.9183 RLU and an RLU (Time 4 s) of 19.2865 RLU. For the same molecule, the RLU (Time 6 s) was -6.64 RLU, the RLU (Time 8 s) was 9.805 RLU and the RLU (Time 12 s) was 17.7969 RLU. It also gave an RLU (Time 14 s) of 8.271 RLU, an RLU (Time 16 s) of -2.182 RLU and an RLU (Time 18 s) of 5.571 RLU. For the same molecule, the RLU (Time 18.781 s) was 8.9 RLU, the RLU (Time 20.781 s) was -20.4639 RLU and the RLU (Time 22.781 s) was -20.313 RLU. It also gave an RLU (Time 24.781 s) of 13.8358 RLU, an RLU (Time 26.781 s) of 13.4767 RLU and an RLU (Time 28.781 s) of 5.266 RLU. It also gave an RLU (Time 30.781 s) of -9.837 RLU, an RLU (Time 32.781 s) of 8.574 RLU and an RLU (Time 34.781 s) of 27.1912 RLU. The RLU (Time 36.781 s) was 18.0239 RLU, the RLU (Time 38.781 s) was 6.659 RLU and the RLU (Time 40.781 s) was 53.7499 RLU. The RLU (Time 42.781 s) was 49.1517 RLU, the RLU (Time 44.781 s) was 47.3635 RLU and the RLU (Time 46.781 s) was 50.4831 RLU. For the same molecule, the RLU (Time 48.781 s) was 74.4289 RLU, the RLU (Time 50.781 s) was 93.6056 RLU and the RLU (Time 52.781 s) was 63.4969 RLU. For the same molecule, the RLU (Time 54.781 s) was 82.9174 RLU, the RLU (Time 56.781 s) was 91.8724 RLU and the RLU (Time 58.781 s) was 82.9428 RLU. It also gave an RLU (Time 60.781 s) of 110.605 RLU, an RLU (Time 62.781 s) of 104.538 RLU and an RLU (Time 64.781 s) of 112.529 RLU. It also gave an RLU (Time 66.781 s) of 137.104 RLU, an RLU (Time 68.781 s) of 132.36 RLU and an RLU (Time 70.781 s) of 132.904 RLU. The RLU (Time 72.781 s) was 132.041 RLU, the RLU (Time 74.781 s) was 144.653 RLU and the RLU (Time 76.781 s) was 172.509 RLU. The RLU (Time 78.781 s) was 142.279 RLU, the RLU (Time 80.781 s) was 151.243 RLU and the RLU (Time 82.781 s) was 167.63 RLU. For the same molecule, the RLU (Time 84.781 s) was 195.966 RLU, the RLU (Time 86.781 s) was 203.204 RLU and the RLU (Time 88.781 s) was 204.712 RLU. The RLU (Time 90.781 s) was 215.59 RLU, the RLU (Time 92.781 s) was 209.022 RLU and the RLU (Time 94.781 s) was 228.864 RLU. It also gave an RLU (Time 96.781 s) of 184.288 RLU, an RLU (Time 98.781 s) of 227.541 RLU and an RLU (Time 100.781 s) of 248.863 RLU. For the same molecule, the RLU (Time 102.781 s) was 222.595 RLU, the RLU (Time 104.781 s) was 217.502 RLU and the RLU (Time 106.781 s) was 225.971 RLU. It also gave an RLU (Time 108.781 s) of 244.356 RLU, an RLU (Time 110.781 s) of 261.979 RLU and an RLU (Time 112.781 s) of 241.216 RLU. It also gave an RLU (Time 114.781 s) of 243.367 RLU, an RLU (Time 116.781 s) of 246.887 RLU and an RLU (Time 118.781 s) of 257.566 RLU. The RLU (Time 120.781 s) was 260.092 RLU, the RLU (Time 122.781 s) was 284.505 RLU and the RLU (Time 124.781 s) was 270.165 RLU. For the same molecule, the RLU (Time 126.781 s) was 278.83 RLU, the RLU (Time 128.781 s) was 309.382 RLU and the RLU (Time 130.781 s) was 309.382 RLU. For the same molecule, the RLU (Time 132.781 s) was 310.252 RLU, the RLU (Time 134.781 s) was 282.326 RLU and the RLU (Time 136.781 s) was 279.582 RLU. For the same molecule, the RLU (Time 137.562 s) was 296.261 RLU, the RLU (Time 143.562 s) was 310.291 RLU and the RLU (Time 149.562 s) was 291.585 RLU. It also gave an RLU (Time 155.562 s) of 301.792 RLU, an RLU (Time 161.562 s) of 299.079 RLU and an RLU (Time 167.562 s) of 303.398 RLU. For the same molecule, the RLU (Time 173.562 s) was 315.378 RLU, the RLU (Time 179.562 s) was 314.187 RLU and the RLU (Time 185.562 s) was 308.746 RLU. For the same molecule, the RLU (Time 191.562 s) was 287.017 RLU, the RLU (Time 197.562 s) was 315.242 RLU and the RLU (Time 203.562 s) was 299.639 RLU. The RLU (Time 209.562 s) was 295.067 RLU, the RLU (Time 215.562 s) was 316.647 RLU and the RLU (Time 221.562 s) was 272.857 RLU. For the same molecule, the RLU (Time 227.562 s) was 314.132 RLU, the RLU (Time 233.562 s) was 269.771 RLU and the RLU (Time 239.562 s) was 270.901 RLU. The RLU (Time 245.562 s) was 241.175 RLU, the RLU (Time 293.562 s) was 236.399 RLU and the RLU (Time 299.562 s) was 209.696 RLU. It also gave an RLU (Time 305.562 s) of 212.529 RLU, an RLU (Time 311.562 s) of 180.625 RLU and an RLU (Time 317.562 s) of 178.726 RLU. It also gave an RLU (Time 323.562 s) of 162.84 RLU, an RLU (Time 329.562 s) of 185.237 RLU and an RLU (Time 335.562 s) of 178.412 RLU. For the same molecule, the RLU (Time 341.562 s) was 163.583 RLU, the RLU (Time 347.562 s) was 148.887 RLU and the RLU (Time 353.562 s) was 153.613 RLU. For the same molecule, the RLU (Time 359.562 s) was 155.912 RLU and the “Activation threshold concentration Tas2r105” value (p < 0.01 vs empty vector) was 3 µM.
